Values of other authors, collected in US6339092B1, “Metalloprotease inhibitors” (Adir et Compagnie, priority 1999, dated 2002).

System: ovarian cancers
Settings: Becket el al., DDT 1996; cited from earlier work

Compound: CNC(=O)[C@H](Cc1ccccc1)NC(=O)[C@H](CC(C)C)[C@H](CSc1cccs1)C(=O)NO [BB94]
- anti-tumour activity in clinical use: active against ovarian cancers
